Experiments:
[1] = Pharmacokinetic correlation of fingertip sweat and capillary blood L-Dopa profiles; format: in vivo, human; conditions: healthy subjects, after L-Dopa/C-Dopa pill, measured every 10 min
Description: While the blood plasma is the ‘gold standard’ matrix for therapeutic monitoring of L-Dopa, this analysis method relies on LC-MS centralized instruments. To further confirm the reliability of the developed protocol based on touch-based sweat L-Dopa detection, the feasibility of data validation between sweat and blood samples is investigated. Two subjects performed fingertip sweat sensing in parallel to the electrochemical measurements of the finger pricked capillary blood samples, using the enzymatic L-Dopa sensor. As shown in FIG. 62 (A)-(B), the sweat sensor is able to probe and detect successfully L-Dopa fluctuations in microliter blood samples similar to the fingertip natural sweat sample. Similar temporal profiles are observed for blood and sweat experiments, with ˜10 min lag time. […] Additionally, control experiments are also carried out without pill intake (FIG. 62 (C)) and using non-enzymatic electrode (FIG. 62 (D)). In both control experiments, the current signal remained small and unchanged, which indicates the signal specificity of the fingertip touch-based sweat sensing procedure.

[2] = Touch-based fingertip sweat L-Dopa monitoring after L-Dopa/C-Dopa pill intake; format: in vivo, human; conditions: oral L-Dopa/C-Dopa (100:25 mg) pill
Description: The disclosed technology can be implemented in some embodiments to provide an individualized therapeutic drug monitoring for PD patients, centered on dynamic non-invasive tracking pharmacokinetic profiles of L-Dopa levels in the secreted sweat upon intake of standard pill formulations. Sweat is a non-invasively retrievable biofluid containing rich information of trace-level, health-related biochemical markers. Wearable sweat sensors have shown enormous potential toward monitoring of physiological heath status (e.g., hydration), disease diagnosis and management (e.g., diabetes and gout), and therapeutic drug monitoring (e.g., pain management). However, the presence of skin as a mechanical barrier prevents an uninterrupted access to this information-rich biofluid, and thus a triggering system (i.e., physical exercise, thermal stimulation, oriontophoresis) is necessary to provide continuous access to sweat sample. […] Taking advantage of the high density of eccrine sweat glands (˜400 glands cm^2) and the consequent generation of high sweat rates, finger touch-based biosensors have recently been reported for the detection of key sweat biomarkers (e.g., glucose, vitamin C, and cortisol). Leveraging such natural thermoregulatory sweat sample, a finger-touch L-Dopa biosensor based on some embodiments of the disclosed technology can continuously monitor the dynamic profile of sweat L-Dopa upon intake of standard anti-Parkinsonian medication including L-Dopa-carbidopa (100:25 mg) (FIG. 5A(a)). […]
To gain further insight into the personalized body responses upon medication intake, the performance of the finger touch biosensor is evaluated on three different individuals while taking the same medication under identically kept conditions (FIG. 7 (a)-(c)). […]

tyrosinase enzyme = test: Selectivity of tyrosinase-modified L-Dopa sensor against C-Dopa; format: biochemical
Description: L-Dopa detection is achieved through coupling the tyrosinase enzyme-catalyzed L-Dopa oxidation (catecholase activity) and the subsequent electrochemical reduction of the corresponding quinone product, dopaquinone, at low potentials (FIG. 6A). The formed reaction cycle not only enhances the sensitivity through amplification of the resulting current signal but also prevents electrode fouling by inhibiting the spontaneous polymerization reactions of the unstable quinone molecules. Tyrosinase enzyme is simply immobilized on the surface of screen-printed carbon electrodes, followed by crosslinking with glutaraldehyde to prevent leaching of the enzyme (FIG. 6A). To establish the optimal potential for the L-Dopaquinone reduction, the amperometric signals obtained at various potentials, ranging from −0.1 to −0.4 V (vs. internal pseudo-reference Ag/AgCl), are compared upon addition of 10 μM L-Dopa. […] Thus, optimal potential of −0.3 V is chosen and used for subsequent in-vitro and on-body experiments. […] The reproducibility of the L-Dopa sensor is evaluated by measuring 10 μM L-Dopa concentration on six different electrodes sensors.
The performance of the sensor toward following the L-Dopa pharmacokinetics is characterized on healthy patients following the administration of L-Dopa/C-Dopa (100:25 mg) pills which are common oral medication for PD patients. […]

| SMILES | lag time between sweat and capillary blood L-Dopa temporal profiles [1] [min] | time at which L-Dopa current signal starts to increase after pill intake ([2]; healthy subject) [min] | time at which sweat L-Dopa signal decreases back to background level after pill intake ([2]; healthy subject) | time of peak maximum of sweat L-Dopa signal after pill intake ([2]; healthy subjects, measured every 10 min) [min] | current relative to L-Dopa (tyrosinase enzyme; a quarter of the L-Dopa concentration (4:1 ratio as in the pill)) [%] | overall response relative to L-Dopa (tyrosinase enzyme; same concentration as L-Dopa, amperometry at -0.3 V) [%] |
| --- | --- | --- | --- | --- | --- | --- |
| N[C@@H](Cc1ccc(O)c(O)c1)C(=O)O [L-Dopa, Levodopa] | ~10 | 10 | one hour | 30 | – | – |
| C[C@@](Cc1ccc(O)c(O)c1)(NN)C(=O)O [C-Dopa, carbidopa] | – | – | – | – | ~6 | ~20 |
